T1: carnitine palmitoyltransferase 1A (CPT1A) (human, UniProt P50416 2-773)
T1 construct: Endogenous protein immunoprecipitated from cell lysate with anti-CPT1A antibody (15184-1-AP, Proteintech); also called FAO rate-limiting enzyme
T1 sequence (looked up): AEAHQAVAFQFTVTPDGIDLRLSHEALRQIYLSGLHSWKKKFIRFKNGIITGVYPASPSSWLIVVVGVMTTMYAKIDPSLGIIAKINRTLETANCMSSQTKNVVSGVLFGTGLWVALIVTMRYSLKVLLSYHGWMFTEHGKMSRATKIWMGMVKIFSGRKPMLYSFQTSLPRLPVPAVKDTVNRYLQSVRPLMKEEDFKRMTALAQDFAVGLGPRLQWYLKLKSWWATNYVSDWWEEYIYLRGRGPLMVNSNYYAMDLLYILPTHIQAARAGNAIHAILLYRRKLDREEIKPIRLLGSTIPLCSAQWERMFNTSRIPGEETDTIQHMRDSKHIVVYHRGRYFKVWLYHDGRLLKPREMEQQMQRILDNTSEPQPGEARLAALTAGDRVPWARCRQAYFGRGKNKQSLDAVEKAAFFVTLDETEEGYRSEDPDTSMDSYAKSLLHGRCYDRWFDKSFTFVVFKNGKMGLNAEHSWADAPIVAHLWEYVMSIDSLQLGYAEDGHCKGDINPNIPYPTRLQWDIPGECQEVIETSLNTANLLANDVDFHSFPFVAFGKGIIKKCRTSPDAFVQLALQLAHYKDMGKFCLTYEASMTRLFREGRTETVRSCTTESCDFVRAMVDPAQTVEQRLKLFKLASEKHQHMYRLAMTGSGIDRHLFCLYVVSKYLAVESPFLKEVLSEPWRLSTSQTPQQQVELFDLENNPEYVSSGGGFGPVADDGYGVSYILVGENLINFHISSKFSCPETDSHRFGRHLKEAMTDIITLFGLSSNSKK


Assays:
CA1D cells = experiment: Seahorse XF Cell Mito Stress Test (oxygen consumption rate); assay type: cell-based, human; conditions: siTROLL-8 vs siNT CA1D cells; OCR normalized to groups without inhibitor; Etomoxir 4.0 μM, UK5099 2.0 μM, BPTES 3.0 μM
Experimental: The oxygen consumption rate (OCR) of cells was measured on the Seahorse XF96 extracellular flux analyzer (Agilent Technologies) using a Seahorse XF Cell Mito Stress Test kit in accordance with the manufacturer's instructions. Briefly, siNT or siTROLL-8 CA1D cells (3.0×10^4 cells/well) were seeded in 6 wells (technical replicates) of a 96 well Agilent Seahorse XF Cell Culture Microplate in full growth medium and attached overnight. Hydrate a sensor cartridge in Seahorse XF Calibrant in a non-CO2 incubator at 37° C. overnight. On the day of assay, cells were carefully washed and the growth medium was replaced with prewarmed Seahorse XF base medium (Agilent Technologies) supplemented with 5 mM HEPES, 10 mM glucose, 1 mM sodium pyruvate, and 2 mM L-Glutamine, pH 7.4). The plates of cells in assay medium were incubated in a non-CO2 incubator at 37° C. for 1 h. Prepare compound stock solutions for loading sensor cartridge ports and load the XF96 sensor cartridge to Seahorse XF96 analyzer. Take three basal measurements and determine oxygen and proton concentration in the medium. […]

CPT1A = experiment: LC-MS of carnitine and fatty acyl-carnitine to reflect CPT1A activity; assay type: cell-based, human
Experimental: 1.5×10^6 CA1D cells were transfected with either siNT (negative control) or siTROLL-8. 48 h after the transfection, the cells were collected and washed 2-3 times with ice-cold PBS. To analyze global metabolite abundances regulated by TROLL-8, an aliquot of the internal standard mixture was added into siNT and siTROLL-8 cell samples for untargeted metabolomics analysis. The internal standards were obtained from Cambridge Isotope Labs and include the following labelled compounds: Glucose (2,3,4,5,6-^13C5), D-Glucose-6-phosphate (U-^13C6), D-Fructose-1,6-bisphosphate (U-^13C6), L-Serine (^13C3), Glycine (1,2-^13C2), L-Cysteine (3,3-D2), Phosphoenol Pyruvate (2,3-^13C2), Lactate (3,3,3-D3), Pyruvate (D3), Acetyl-1,2-^13C2 CoA, Citric Acid (2,2,4,4-D4), Alpha-Ketoglutaric Acid (1,2,3,4-^13C4), Succinic Acid (D4), Fumaric Acid (D4), DL-Malic Acid (2,3,3-D3), D-Fructose-6-phosphate (U-^13C6). 1 ml of precooled 80% methanol extraction solvent (kept in the −80° C. freezer at least 1 h prior to extraction) was added to the sample for protein precipitation. After addition of the extraction solvent, the samples were vortexed and centrifuged at 18,800×g (Microfuge 22R, Beckman Coulter) at 0° C. for 10 min. Then, the samples were incubated for 30 min in a −80° C. freezer to increase metabolite extraction. After incubation, the samples were immediately centrifuged at 18,800×g at 4° C. for 10 min. Then the supernatant was transferred to a new microcentrifuge tube for drying in SpeedVac vacuum concentrator (Thermo Fisher Scientific). The protein pellet was resolubilized using aqueous 20 mM HEPES with 8M urea for Bradford Assay to measure the protein concentration. Dried metabolites were re-dissolved in 20 μl aqueous 80% methanol. Ultra-high performance liquid chromatography-high resolution mass spectrometry (UHPLC-HRMS) was performed using a Vanquish UHPLC interfaced with a Q Exactive HF quadrupole-orbital ion trap mass spectrometer (Thermo, San Jose, CA). Chromatographic separation was performed using a SeQuant ZIC-pHILIC guard column (2.1 mm ID×20 mm length, 5 μm particle size) and a SeQuant ZIC-pHILIC LC column (2.1 mm ID×150 mm length, 5 μm particle size, MilliporeSigma, Burlington, MA). Mobile phase A was aqueous 10 mM ammonium carbonate and 0.05% ammonium hydroxide, and mobile phase B was 100% acetonitrile. The gradient program included the following steps: start at 80% B, a linear gradient from 80 to 20% B over 13 min, stay at 20% B for 2 min, return to 80% B in 0.1 min, and re-equilibration for 4.9 min for a total run time of 20 min. The flow rate was set to 0.250 ml/min. The autosampler was cooled to 5° C. and the column temperature was set to 30° C. Sample injection volume was 2 μl for both positive ion mode and negative ion mode electrospray ionization. Full MS was performed in positive and negative mode separately detecting ions from m/z 65 to m/z 900. MZmine software, version 3.39, was used to identify and quantify metabolites by matching by m/z and RT to an in-house library. Data normalization was carried out using the protein concentration. For acetyl-CoA detection, spike heavily labelled internal standards (3 labelled Acyl CoAs) into each sample. For fatty acyl-carnitine detection, spike heavily labelled internal standards (3 labelled Acyl Carnitine) into each sample. An aliquot (300 μl) of cold 80% methanol extraction solvent (leave in −80° C. at least one hour prior to the experiments) is added to the sample for protein precipitation. After vortexing, the samples are then incubated in the −80° C. freezer for 30 mins, followed by centrifugation at 18,800×g (Microfuge 22R, Beckman Coulter) at 0° C. for 10 mins. Then the supernatant is transferred to new Eppendorf tubes for drying in SpeedVac vacuum concentrator (Thermo Fisher Scientific). The protein pellet is left behind and proceeds for protein concentration measurement by Bradford Assay. […]

[1] = molecular target: T1, carnitine palmitoyltransferase 1A …; experiment: co-IP with anti-CPT1A antibody from CA1D cell lysate, western blot
Source text: Beyond its classical activity, ACAT1 acetylates the Pyruvate Dehydrogenase Phosphatase Catalytic Subunit1 (PDP1) and the Pyruvate Dehydrogenase E1 Subunit Alpha1 (PDHA1) in the Pyruvate Dehydrogenase Complex (PDC), which negatively regulates the activity of Pyruvate Dehydrogenase (PDH) in glycolysis and tumor growth. […] In the experiment, we have the following groups: whole cell lysate (5% of the total input); cell lysate from either CA1D cells, or siNT/siTROLL-8 treated CA1D cells immunoprecipitated with CPT1A specific antibody; or the same cell lysate immunoprecipitated with normal IgG control antibody. […] While there is no change in the expression level of either CPT1A or ACAT1 in the whole cell lysate, CPT1A specifically immunoprecipitated more ACAT1 (by around 2-fold) in siTROLL-8 CA1D cells compared to non-treated cells, confirming the LC-MS discovery that TROLL-8 depletion increased the physical interaction between CPT1A and ACAT1.
4 mg cell lysate of CA1D cells were prepared using RIPA buffer and used to test the interaction between CPT1A and ACAT1. 4 mg cell lysate of either CA1D cells transfected with siRNAs for TROLL-8, or with the non-targeting siRNA as a negative control, were used to test the change in the interaction between CPT1A and ACAT1. The CoIP assay was performed according to the protocol provided with the anti-CPT1A primary antibody (15184-1-AP). […]

[2] = molecular target: T1, carnitine palmitoyltransferase 1A …; experiment: co-IP with anti-CPT1A antibody from CA1D cell lysate, LC-MS/MS proteomics
Experimental: 4 mg cell lysate of CA1D cells were prepared using RIPA buffer and used to test the interaction between CPT1A and ACAT1. 4 mg cell lysate of either CA1D cells transfected with siRNAs for TROLL-8, or with the non-targeting siRNA as a negative control, were used to test the change in the interaction between CPT1A and ACAT1. The CoIP assay was performed according to the protocol provided with the anti-CPT1A primary antibody (15184-1-AP). Add anti-CPT1A primary antibody (15184-1-AP, Proteintech) or negative control normal rabbit IgG (#2729, Cell Signaling) corresponding to the primary antibody source to the lysate with gentle rocking at 4° C. for 12 h. 50 ul Protein G Dynabeads slurry were added to capture the immunocomplex with gentle rocking at 4° C. for 12 h. Collect the beads with magnetic stand and discard the supernatant. Wash the beads 3 times with 1 ml 0.2% TBST, collect the beads with magnetic stand and discard the supernatant. […] The interaction was then detected via western blot using the following primary antibodies: CPT1A (ab128568, Abcam), ACAT1 (ab168342, Abcam), and beta-actin (A5441, Sigma-Aldrich).
1.5×10⁶ CA1D cells were transfected with either siNT (negative control) or siTROLL-8. […] The SDS-PAGE gel bands or the immunoprecipitated proteins were extracted, digested with trypsin, and analyzed via LC-MS/MS and the identified peptides are listed in Supplementary Data 1. […]

[3] = CA1D cells with shCPT1A and CPT1A WT/KQ/KR overexpression, mutants compared to CPT1A overexpression

fold change of ACAT1 immunoprecipitated by CPT1A (siTROLL-8 vs non-treated CA1D cells) [1] [fold]	fold change of co-immunoprecipitation with CPT1A (TROLL-8 depleted vs non-treated CA1D cells) [2] [fold]	Molecule	impact of fuel oxidation inhibitor in basal respiration upon TROLL-8 depletion (CA1D cells)	fatty acylcarnitine level (CPT1A; [3])	free carnitine level (CPT1A; [3])	long-chain fatty acylcarnitine levels (CPT1A; CA1D cells, 10 μM Etomoxir)	medium-chain fatty acylcarnitine levels (CPT1A; CA1D cells, 10 μM Etomoxir)	short-chain fatty acylcarnitine levels (CPT1A; CA1D cells, 10 μM Etomoxir)	level of carnitine (substrate for CPT1A activity) (CPT1A; CA1D cells, siNT, siTROLL-8, siNT+Eto, 10 μM Etomoxir)
–	–	N#C/C(=C\c1cn(-c2ccccc2)c2ccccc12)C(=O)O [UK5099]	increased the impact	–	–	–	–	–	–
–	–	CCOC(=O)[C@@]1(CCCCCCOc2ccc(Cl)cc2)CO1 [Etomoxir]	increased the impact	reduced	augmented	significantly reduced	significantly reduced	significantly reduced	increased
~2	~2	ACAT1, the acetyl-CoA acetyltransferase 1 protein (enzyme, human, UniProt P24752 34-427, looked up, Endogenous protein co-immunoprecipitated with CPT1A from cell lysate; also called acetyltransferase ACAT1) VSKPTLKEVVIVSATRTPIGSFLGSLSLLPATKLGSIAIQGAIEKAGIPKEEVKEAYMGNVLQGGEGQAPTRQAVLGAGLPISTPCTTINKVCASGMKAIMMASQSLMCGHQDVMVAGGMESMSNVPYVMNRGSTPYGGVKLEDLIVKDGLTDVYNKIHMGSCAENTAKKLNIARNEQDAYAINSYTRSKAAWEAGKFGNEVIPVTVTVKGQPDVVVKEDEEYKRVDFSKVPKLKTVFQKENGTVTAANASTLNDGAAALVLMTADAAKRLNVTPLARIVAFADAAVEPIDFPIAPVYAASMVLKDVGLKKEDIAMWEVNEAFSLVVLANIKMLEIDPQKVNINGGAVSLGHPIGMSGARIVGHLTHALKQGEYGLASICNGGGGASAMLIQKL	–	–	–	–	–	–	–
